Test results published in patent publication US8349850B2, “Heterocyclic compounds and uses thereof in the treatment of sexual disorders” (ATIR Holding S.A., priority 2006, dated 2013).

What was measured:
[1] = molecular target: T1, D4.4 receptor (Homo sapiens, UniProt P21917); assay: Competitive binding to D4.4 dopamine receptor ([3H]-YM-09151-2 radioligand); settings: 5 mcM compound; human recombinant D4.4 in CHO cells; na = no activity
T1 construct: expressed in transfected cells; host or cells: CHO cells
T1 sequence (P21917 1-419): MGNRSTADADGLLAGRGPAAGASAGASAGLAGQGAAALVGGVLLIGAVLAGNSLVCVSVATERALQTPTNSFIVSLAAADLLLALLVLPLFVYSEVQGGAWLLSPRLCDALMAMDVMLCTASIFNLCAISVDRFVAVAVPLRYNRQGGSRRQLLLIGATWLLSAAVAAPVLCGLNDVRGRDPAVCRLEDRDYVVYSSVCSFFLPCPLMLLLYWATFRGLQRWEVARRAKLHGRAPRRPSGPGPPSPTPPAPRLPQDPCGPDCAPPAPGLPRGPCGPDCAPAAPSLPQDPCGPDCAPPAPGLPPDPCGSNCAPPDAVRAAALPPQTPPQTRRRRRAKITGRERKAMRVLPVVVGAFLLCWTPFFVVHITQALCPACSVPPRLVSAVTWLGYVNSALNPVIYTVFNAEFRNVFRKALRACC
Protocol: Compounds were assayed for competitive binding to D2 SHORT and D4.4 type dopamine receptors. Both receptor types are expressed as human recombinant proteins in CHO cells, as described, for example, in Jarvis et al. (1973); Van Tol et al. (1991) and Van Tol et al. (1992).
Determination of binding to D4.4 receptor was performed using [^3H]-YM-09151-2 (70-87 Ci/mmol, 0.3 nM), as a radioligand, in with the presence of various concentrations of the tested compound. Reactions were carried out in 50 mM TRIS-HCl (pH 7.4) containing 5 mM MgCl2, 5 mM EDTA, 5 mM KCl and 1.5 mM CaCl2, for 60 minutes at 22° C. The reaction was terminated by rapid vacuum filtration onto glass fiber filters. Radioactivity trapped onto the filters was determined (counted) and compared to control values in order to accurately evaluate any interaction of the tested compound(s) with the cloned dopamine D4.4 binding site.

[2] = molecular target: T2, PDE5 partially purified from human platelets (Homo sapiens, UniProt O76074); assay: Phosphodiesterase Type 5 (PDE5) Inhibition; assay type: biochemical; settings: for PDE5 IC50, 10^−6 M / IC50: 'active' = observed activity not quantitated; for IC50: read-out: PDE5 IC50, 10^−6 M; for exhibit both PDE5 inhibition and D4 agonist activity (dual activity): referring to Table 2 (PDE5 and D4 assays)
T2 construct: PDE5 partially purified from human platelets was used; from tissue; host or cells: human platelets
Protocol: Phosphodiesterase type 5 (PDE5) catalyzes the conversion of cAMP or cGMP to their respective monophosphate forms. PDE5 has a high Km for cAMP and a low Km for cGMP, is insensitive to Ca^2+/calmodulin or cGMP regulation, and is relatively sensitive to inhibitors such as dipyridamol and zaprinast.
PDE5 partially purified from human platelets was used. The tested compound (at a concentration of 0.1, 1, 20 or 50 μM) and/or vehicle was incubated with 3.5 μg enzyme and 1 μM cGMP containing 0.01 μM [^3H]cGMP in Tris buffer pH 7.5 for 20 minutes at 30° C. Since enzyme activity may change from lot to lot, the concentration used was adjusted if required.
The reaction was terminated by boiling the reaction mixture for 2 minutes. The obtained GMP was then converted to guanosine by addition of 10 mg/ml snake venom nucleotidase and further incubation at 30° C. for 10 minutes. Unhydrolyzed cGMP was bound to AG1-X2 resin, and remaining [^3H]Guanosine in the aqueous phase was quantitated by scintillation counting.

| SMILES | inhibition at 5 µM [1] | inhibition at 50 µM ([2]; 50 mcM compound, 1 μM cGMP) | further results |
| --- | --- | --- | --- |
| O=c1[nH]c2ccccc2nc1CN1CCN(c2cccc(O)c2)CC1 [Compound B-37, 3-((4-(3-hydroxyphenyl)piperazin-1-yl)methyl)quinoxalin-2(1H)-one] | 62% |  |  |
| O=c1[nH]c(CN2CCN(c3ncccc3OCc3ccccc3)CC2)nc2ccccc12 [Compound B-10, 2-((4-(3-(benzyloxy)pyridin-2-yl)piperazin-1-yl)methyl)quinazolin-4(3H)-one] | 60% | 40% | PDE5 IC50, 10^−6 M [2]: active |
| CCn1c(=O)c2[nH]c(CN3CC=C(c4ccccc4)CC3)nc2n(CC)c1=O [Xan2] | 25% |  |  |
| O=c1[nH]c(CN2CCN(c3ncccn3)CC2)nc2nc[nH]c12 [Compound 408, 2-((4-(pyrimidin-2-yl)piperazin-1-yl)methyl)-1H-purin-6(7H)-one] | 33% | 32% | PDE5 IC50, 10^−6 M [2]: active |
| COc1ccccc1N1CCN(Cc2nc3cc(Cl)ccc3c(=O)[nH]2)CC1 [Compound B-38, 7-chloro-2-((4-(2-methoxyphenyl)piperazin-1-yl)methyl)quinazolin-4(3H)-one] | 65% |  |  |
| O=c1[nH]c(CN2CCN(c3ccccn3)CC2)nc2nc[nH]c12 [Compound 409, 2-((4-(pyridin-2-yl)piperazin-1-yl)methyl)-1H-purin-6(7H)-one] | 8% | 24% | PDE5 IC50, 10^−6 M [2]: active |
| Cc1cccc2nc(CN3CCN(c4cccc(O)c4)CC3)[nH]c(=O)c12 [Compound B-9, 2-((4-(3-hydroxyphenyl)piperazin-1-yl)methyl)-5-methylquinazolin-4(3H)-one] | 89% | 47% | PDE5 IC50, 10^−6 M [2]: active |
| O=c1[nH]c(CN2CC=C(c3ccccn3)CC2)nc2cc(Cl)ccc12 [Compound B-71, 7-chloro-2-((5,6-dihydro-4-(pyridin-2-yl)pyridin-1(2H)-yl)methyl)quinazolin-4(3H)-one] |  | 63% | IC50 [2]: 27 µM |
| O=c1[nH]c(CN2CCN(c3cccc(O)c3)CC2)nc2cccc(F)c12 [Compound B-36, 5-fluoro-2-((4-(3-hydroxyphenyl)piperazin-1-yl)methyl)quinazolin-4(3H)-one] | 82% |  |  |
| O=c1[nH]c(CN2CCN(c3cccc(O)c3)CC2)nc2cc(Cl)ccc12 [Compound B-8, 7-chloro-2-((4-(3-hydroxyphenyl)piperazin-1-yl)methyl)quinazolin-4(3H)-one] | 90% | 28% | PDE5 IC50, 10^−6 M [2]: active |
| CCCOc1cccnc1N1CCN(Cc2nc3ccccc3c(=O)[nH]2)CC1 [Compound B-14, 2-((4-(3-propoxypyridin-2-yl)piperazin-1-yl)methyl)quinazolin-4(3H)-one] | 81% | 70% | IC50 [2]: 9 µM; exhibit both PDE5 inhibition and D4 agonist activity (dual activity) [2]: both PDE5 inhibition and D4 agonist activity |
| N#Cc1ccccc1N1CCN(Cc2nc3ccccc3[nH]c2=O)CC1 [Compound B-34, 2-(4-((1,2-dihydro-2-oxoquinoxalin-3-yl)methyl)piperazin-1-yl)benzonitrile] | 84% |  |  |
| O=c1[nH]c(CN2CCN(c3nccs3)CC2)nc2ccccc12 [Compound B-11, 2-((4-(thiazol-2-yl)piperazin-1-yl)methyl)quinazolin-4(3H)-one] | 18% | 68% | IC50 [2]: 2 µM |
| O=c1[nH]c(CN2CCN(c3ncccn3)CC2)nc2ccccc12 [Compound 123, 2-[(4-pyrimidin-2-ylpiperazin-1-yl)methyl]quinazolin-4(3H)-one] | 13% | 61% | IC50 [2]: 26 µM |
| O=c1[nH]c(CN2CC=C(c3ccccn3)CC2)nc2ccccc12 [Compound 115, 2-(3′,6′-dihydro-2,4′-bipyridin-1′(2′H)-ylmethyl)quinazolin-4(3H)-one] | 66% |  |  |
| O=c1[nH]c2ccccc2nc1CN1CC=C(c2ccccc2)CC1 [Compound B-42, 3-((5,6-dihydro-4-phenylpyridin-1(2H)-yl)methyl)quinoxalin-2(1H)-one] | 62% |  |  |
| O=c1[nH]c(CN2CCN(c3ccccn3)CC2)nc2ccccc12 [Compound 102, 2-[(4-pyridin-2-ylpiperazin-1-yl)methyl]quinazolin-4(3H)-one] |  | 29% | PDE5 IC50, 10^−6 M [2]: active |
| COc1ccccc1C1=CCN(Cc2nc3cc(Cl)ccc3c(=O)[nH]2)CC1 [Compound B-39, 7-chloro-2-((5,6-dihydro-4-(2-methoxyphenyl)pyridin-1(2H)-yl)methyl)quinazolin-4(3H)-one] | 95% |  |  |
| O=c1[nH]c(CN2CCN(c3cccc(O)c3)CC2)nc2cc(Cl)ccc12 [Compound B-3] |  |  | D4.4(h) Competitive Binding, % at 5 mcM [1]: 82% |
| CCOc1cccnc1N1CCN(Cc2nc3ccccc3c(=O)[nH]2)CC1 [Compound B-13, 2-((4-(3-ethoxypyridin-2-yl)piperazin-1-yl)methyl)quinazolin-4(3H)-one] | 86% |  |  |
| O=c1[nH]c(CN2CC=C(c3ccccc3)CC2)nc2cc(Cl)ccc12 [Compound B-47, 7-chloro-2-((5,6-dihydro-4-phenylpyridin-1(2H)-yl)methyl)quinazolin-4(3H)-one] | 63% |  |  |
| COc1ccccc1C1=CCN(Cc2nc3ccccc3c(=O)[nH]2)CC1 [Compound B-31, 2-((5,6-dihydro-4-(2-methoxyphenyl)pyridin-1(2H)-yl)methyl)quinazolin-4(3H)-one] | 74% |  |  |

Continued, in another order:

| inhibition at 5 µM [1] | inhibition at 50 µM ([2]; 50 mcM compound, 1 μM cGMP) | SMILES | further results |
| --- | --- | --- | --- |
|  | 26% | CCOc1cccnc1N1CCN(Cc2nc3cc(Cl)ccc3c(=O)[nH]2)CC1 [Compound B-43, 7-chloro-2-((4-(3-ethoxypyridin-2-yl)piperazin-1-yl)methyl)quinazolin-4(3H)-one] | PDE5 IC50, 10^−6 M [2]: active |
| 70% | 62% | O=c1[nH]c(CN2CCN(c3ncccn3)CC2)nc2cc(Cl)ccc12 [Compound B-72, 7-chloro-2-((4-(pyrimidin-2-yl)piperazin-1-yl)methyl)quinazolin-4(3H)-one] | IC50 [2]: 2 µM; exhibit both PDE5 inhibition and D4 agonist activity (dual activity) [2]: both PDE5 inhibition and D4 agonist activity |
| 57% |  | O=c1[nH]c(CN2CCCC(c3ccccn3)C2)nc2ccccc12 (stereo not drawn) [Compound B-83, 2-((3-(pyridin-2-yl)piperidin-1-yl)methyl)quinazolin-4(3H)-one] |  |
| 54% |  | CCn1c(=O)c2[nH]c(CN3CCN(c4cccc(O)c4)CC3)nc2n(CC)c1=O [Xan1, 1,3-diethyl-8-((4-(3-hydroxyphenyl)piperazin-1-yl)methyl)-1H-purine-2,6(3H,7H)-dione] |  |
| 12% |  | O=c1[nH]c(CN2CCC=C(c3ccccn3)C2)nc2ccccc12 [Compound B-82, 2-((5,6-dihydro-3-(pyridin-2-yl)pyridin-1(2H)-yl)methyl)quinazolin-4(3H)-one] | PDE5 % inhibition at 50 mcM ([2]; 50 mcM compound, 1 μM cGMP): Problems with solubility; PDE5 IC50, 10^−6 M [2]: Problems with solubility |
|  | 73% | O=c1c2ccccc2nc(CN2CCN(c3ncccn3)CC2)n1Cc1ccccc1 [Compound B-75, 3-benzyl-2-((4-(pyrimidin-2-yl)piperazin-1-yl)methyl)quinazolin-4(3H)-one] | IC50 [2]: 21 µM |
| 29% |  | O=c1[nH]c2ccccc2nc1CN1CCN(c2ncccn2)CC1 [Compound B-44, 3-((4-(pyrimidin-2-yl)piperazin-1-yl)methyl)quinoxalin-2(1H)-one] |  |
| 46% |  | CCOc1ccccc1N1CCN(Cc2nc3cc(Cl)ccc3c(=O)[nH]2)CC1 [Compound B-45, 7-chloro-2-((4-(2-ethoxyphenyl)piperazin-1-yl)methyl)quinazolin-4(3H)-one] |  |
| 88% |  | O=c1[nH]c(CN2CCC(c3ccccc3)CC2)nc2ccccc12 [Compound B-51, 2-((4-phenylpiperidin-1-yl)methyl)quinazolin-4(3H)-one] |  |
